Results taken from ChEMBL document CHEMBL1201862, “PubChem BioAssay data set” (2004).
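48-hour exposure; five concentrations; linearly interpolated endpoints. GI50 = concentration required for 50% inhibition of growth.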 Activity calls are given as the source filed them. No stated cut-off is given here; in the data, active = GI50 up to about 1.1 µM and inactive = higher.

What was measured:
Assay in all cases: NCI tumour cell line growth inhibition, 48 h
UO-31 = test system: UO-31
SNB-19 = test system: SNB-19
MOLT-4 = test system: MOLT-4
SK-OV-3 = test system: SK-OV-3
HOP-92 = test system: HOP-92
M19-MEL = test system: M19-MEL
A549 = test system: A549
OVCAR-8 = test system: OVCAR-8
SW-620 = test system: SW-620
SNB-75 = test system: SNB-75
NCI-H460 = test system: NCI-H460
RPMI-8226 = test system: RPMI-8226
HCT-116 = test system: HCT-116
M14 = test system: M14
TK-10 = test system: TK-10
OVCAR-3 = test system: OVCAR-3
786-0 = test system: 786-0
NCI/ADR-RES = test system: NCI/ADR-RES
DU-145 = test system: DU-145
MDA-N = test system: MDA-N

Row | Compound | GI50 (UO-31) | GI50 (SNB-19) | GI50 (MOLT-4) | GI50 (SK-OV-3) | GI50 (HOP-92) | GI50 (M19-MEL) | GI50 (A549) | GI50 (OVCAR-8) | GI50 (SW-620) | GI50 (SNB-75) | GI50 (NCI-H460) | GI50 (RPMI-8226) | GI50 (HCT-116) | GI50 (M14) | GI50 (TK-10) | GI50 (OVCAR-3) | GI50 (786-0) | GI50 (NCI/ADR-RES) | GI50 (DU-145) | GI50 (MDA-N)
1 | O=C(O/N=C1/CCCC/C1=C\c1ccccc1)c1ccccc1 | > 100 µM (inactive) | > 100 µM (inactive) | 24.5 µM (inactive) | > 100 µM (inactive) | 63.5 µM (inactive) | > 100 µM (inactive) | > 100 µM (inactive) | 42.5 µM (inactive) | > 100 µM (inactive) | > 100 µM (inactive) | > 10 µM (inactive) | > 100 µM (inactive) | 34 µM (inactive) | > 100 µM (inactive) | > 100 µM (inactive) | > 100 µM (inactive) | > 100 µM (inactive) | – | – | –
2 | C/C(=N\NS(=O)(=O)c1ccccc1)c1ccc[n+]([O-])n1 | > 100 µM (inactive) | > 100 µM (inactive) | 36.4 µM (inactive) | > 100 µM (inactive) | 39 µM (inactive) | > 100 µM (inactive) | > 100 µM (inactive) | 81.7 µM (inactive) | 34.8 µM (inactive) | 47.6 µM (inactive) | > 100 µM (inactive) | 28.1 µM (inactive) | 88.1 µM (inactive) | 30.1 µM (inactive) | – | 42.5 µM (inactive) | > 100 µM (inactive) | – | – | –
3 | O=c1[nH]cc(COCC(O)CO)c(=O)[nH]1 (stereo not drawn) | > 100 µM (inactive) | > 100 µM (inactive) | > 100 µM (inactive) | > 100 µM (inactive) | > 100 µM (inactive) | > 100 µM (inactive) | > 100 µM (inactive) | > 100 µM (inactive) | > 100 µM (inactive) | > 100 µM (inactive) | > 100 µM (inactive) | > 100 µM (inactive) | > 100 µM (inactive) | > 100 µM (inactive) | > 100 µM (inactive) | > 100 µM (inactive) | > 100 µM (inactive) | – | – | –
4 | N#Cc1nc(Nc2ccc(Cl)cc2)sc1N | 3.62 µM (inactive) | 22.1 µM (inactive) | 1.52 µM (inactive) | 21.5 µM (inactive) | 20.9 µM (inactive) | 12.4 µM (inactive) | 10.7 µM (inactive) | 16.7 µM (inactive) | 6.1 µM (inactive) | 28.8 µM (inactive) | 16.4 µM (inactive) | 2.34 µM (inactive) | 6.44 µM (inactive) | 23.6 µM (inactive) | 23 µM (inactive) | 17.8 µM (inactive) | 8.43 µM (inactive) | – | – | –
5 | CCOC(=O)c1s/c(=N\Nc2nc3ccccc3cc2C2OCCO2)n(Cc2ccccc2)c1C | > 100 µM (inactive) | > 100 µM (inactive) | 40.2 µM (inactive) | > 100 µM (inactive) | > 100 µM (inactive) | > 100 µM (inactive) | > 100 µM (inactive) | > 100 µM (inactive) | > 100 µM (inactive) | > 100 µM (inactive) | > 100 µM (inactive) | > 100 µM (inactive) | > 100 µM (inactive) | > 100 µM (inactive) | > 100 µM (inactive) | > 100 µM (inactive) | > 100 µM (inactive) | – | – | –
6 | Cc1c2ccnc(C(N)=O)c2c(C)c2c1[nH]c1ccccc12 | 6.43 µM (inactive) | 8.13 µM (inactive) | 2.72 µM (inactive) | 7.66 µM (inactive) | – | 7.46 µM (inactive) | 5.47 µM (inactive) | 4.13 µM (inactive) | 3.19 µM (inactive) | 10.6 µM (inactive) | 3.81 µM (inactive) | 5.82 µM (inactive) | 2.4 µM (inactive) | 6.58 µM (inactive) | 5.55 µM (inactive) | 9.08 µM (inactive) | 5.08 µM (inactive) | 5.65 µM (inactive) | – | –
7 | N#Cc1ccccc1NC(=O)c1ccccc1 | – | > 100 µM (inactive) | – | – | > 100 µM (inactive) | > 100 µM (inactive) | > 100 µM (inactive) | > 100 µM (inactive) | > 100 µM (inactive) | 68.5 µM (inactive) | > 100 µM (inactive) | > 100 µM (inactive) | > 100 µM (inactive) | – | > 100 µM (inactive) | > 100 µM (inactive) | > 100 µM (inactive) | – | – | –
8 | CC1COS(=O)N1c1ccccc1 (stereo not drawn) | > 100 µM (inactive) | – | > 100 µM (inactive) | > 100 µM (inactive) | > 100 µM (inactive) | > 100 µM (inactive) | > 100 µM (inactive) | > 100 µM (inactive) | > 100 µM (inactive) | > 100 µM (inactive) | > 100 µM (inactive) | > 100 µM (inactive) | – | > 100 µM (inactive) | > 100 µM (inactive) | – | > 100 µM (inactive) | – | – | –
9 | O=C1NC(=O)C(=Cc2c3ccccc3cc3ccccc23)C(=O)N1 | > 100 µM (inactive) | > 100 µM (inactive) | 55.5 µM (inactive) | > 100 µM (inactive) | > 100 µM (inactive) | > 100 µM (inactive) | > 100 µM (inactive) | > 100 µM (inactive) | > 100 µM (inactive) | – | > 100 µM (inactive) | 31.6 µM (inactive) | > 100 µM (inactive) | > 100 µM (inactive) | > 100 µM (inactive) | – | > 100 µM (inactive) | – | – | –
10 | Nc1nc(SCCC/C=C/B(O)O)nc2c1ncn2C1OC(COP(=O)(O)O)C(O)C1O (stereo not drawn) | > 203 µM (inactive) | > 203 µM (inactive) | > 203 µM (inactive) | > 203 µM (inactive) | > 203 µM (inactive) | > 203 µM (inactive) | > 203 µM (inactive) | > 203 µM (inactive) | > 203 µM (inactive) | > 203 µM (inactive) | > 203 µM (inactive) | > 203 µM (inactive) | > 203 µM (inactive) | > 203 µM (inactive) | > 203 µM (inactive) | > 203 µM (inactive) | > 203 µM (inactive) | – | – | –
11 | O=C(N/C(=C\c1ccc2c(c1)OCO2)c1nc2ccccc2[nH]1)c1ccccc1 | 24.6 µM (inactive) | 36 µM (inactive) | 20.2 µM (inactive) | 35.6 µM (inactive) | 18.8 µM (inactive) | 3.03 µM (inactive) | 35.2 µM (inactive) | 37 µM (inactive) | 33.6 µM (inactive) | 20.9 µM (inactive) | 34.8 µM (inactive) | 32.2 µM (inactive) | 31.3 µM (inactive) | 25.1 µM (inactive) | 29.2 µM (inactive) | 24.7 µM (inactive) | 59.2 µM (inactive) | – | – | –
12 | N#CCC(=O)N/N=C(/C(=O)Nc1ccccc1)C1C(=O)N(c2ccccc2)N=C1N (stereo not drawn) | > 100 µM (inactive) | > 100 µM (inactive) | > 100 µM (inactive) | > 100 µM (inactive) | > 100 µM (inactive) | > 100 µM (inactive) | > 100 µM (inactive) | > 100 µM (inactive) | > 100 µM (inactive) | > 100 µM (inactive) | > 100 µM (inactive) | > 100 µM (inactive) | > 100 µM (inactive) | > 100 µM (inactive) | > 100 µM (inactive) | > 100 µM (inactive) | > 100 µM (inactive) | – | – | –
13 | C=CCc1cc(-c2cc(CC=C)c(O)c(CN(CCCl)CCCl)c2)cc(CN(CCCl)CCCl)c1O | 16.3 µM (inactive) | 19.1 µM (inactive) | 2.52 µM (inactive) | 18.9 µM (inactive) | 15.4 µM (inactive) | 14.5 µM (inactive) | 13.7 µM (inactive) | 12.1 µM (inactive) | 12.3 µM (inactive) | 16.3 µM (inactive) | 3.79 µM (inactive) | 12.2 µM (inactive) | 11.1 µM (inactive) | 15.4 µM (inactive) | 19.3 µM (inactive) | 15.2 µM (inactive) | 7.94 µM (inactive) | 18.9 µM (inactive) | 15.7 µM (inactive) | 15.2 µM (inactive)
14 | CC(C)N(C(=O)C12C3C4C1(I)C1C2C3(I)C41C(=O)N(C(C)C)C(C)C)C(C)C (stereo not drawn) | > 100 µM (inactive) | > 100 µM (inactive) | > 100 µM (inactive) | > 100 µM (inactive) | > 100 µM (inactive) | > 47 µM (inactive) | > 100 µM (inactive) | > 100 µM (inactive) | > 39.2 µM (inactive) | > 73.1 µM (inactive) | > 100 µM (inactive) | > 52.2 µM (inactive) | > 100 µM (inactive) | > 100 µM (inactive) | > 100 µM (inactive) | > 100 µM (inactive) | > 45.7 µM (inactive) | – | – | –
15 | Nc1nc(=O)c(/N=N/c2ccccc2)c(N)[nH]1 | 42.4 µM (inactive) | > 100 µM (inactive) | > 100 µM (inactive) | 60.3 µM (inactive) | 22.5 µM (inactive) | 39.3 µM (inactive) | 29.9 µM (inactive) | 43.5 µM (inactive) | 78.2 µM (inactive) | 3.78 µM (inactive) | 24.6 µM (inactive) | > 100 µM (inactive) | 16.1 µM (inactive) | 28 µM (inactive) | 59.8 µM (inactive) | 71.8 µM (inactive) | 55 µM (inactive) | – | – | –
16 | COc1c(OC(C)=O)c(OC(C)=O)cc2c1-c1ccc(OC)c(=O)cc1C(NC(C)=O)CC2 (stereo not drawn) | 4.86 µM (inactive) | 0.0336 µM (active) | 0.0155 µM (active) | 2.29 µM (inactive) | 0.0173 µM (active) | < 0.0167 µM (active) | 0.209 µM (active) | 0.0254 µM (active) | < 0.0125 µM (active) | < 0.01 µM (active) | 0.0451 µM (active) | < 0.0142 µM (active) | 0.0215 µM (active) | < 0.0125 µM (active) | 2.7 µM (inactive) | 0.0138 µM (active) | 0.027 µM (active) | 1.6 µM (inactive) | 0.0525 µM (active) | < 0.01 µM (active)
